Data as given in a melting point compilation (Tetko et al.).

SMILES | melting point
CCCCCCCCCCCCCCCC(=O)OC(=O)CCCCCCCCCCCCCCC | 64 °C
O=C(O)c1cc(-c2ccccc2)on1 | 192 to 200 °C
O=Cc1ccc(OCc2ccccc2F)cc1 | 54 to 57 °C
OC1CCCCCCCCCCCCCC1 | 80.5 °C
Cc1nc2ccc([N+](=O)[O-])cc2o1 | 155 °C
CC1(C)OC(CO)C(CO)O1 (single isomer, unassigned; (+)) | 47 to 51 °C
COc1cccc(P(c2cccc(OC)c2)c2cccc(OC)c2)c1 | 115 °C
Cc1oc(C)c(S(=O)(=O)NCc2cccs2)c1C(=O)O | 167 to 169 °C
CC(C)(C)OC(=O)NCC1CCN(Cc2ccccc2)CC1 | 102 to 103 °C
CC(C)(C)NC(=S)NC(C)(C)C | 168 to 171 °C
CC12CCCCC1CCC1C2CCC2(C)C(OCc3ccccc3)CCC12 (configuration not stated) | 160 °C
COc1ccccc1C1Nc2nc(C(F)(F)F)nn2C(N)=C1C#N (configuration not stated) | 245 °C
COCCN(C(=O)CCl)c1c(C)cccc1C | 46.3 °C
Cc1nn(C)c(C)c1C(=O)O | 218 to 219 °C
CC1CCC(O)CC1=CC=C1CCCC2(C)C1CCC2C(C)C=CC(C)C(C)C (configuration not stated) | 126 °C
CC(C)c1cc(C(C)C)c(S(=O)(=O)Cl)c(C(C)C)c1 | 96 °C
NC1CONC1=O (configuration not stated) | 156 °C
O=[N+]([O-])c1ccc2ccccc2c1O | 123 to 125 °C
O=[N+]([O-])c1ccc2ncoc2c1 | 150 to 152 °C
O=C(C=P(c1ccccc1)(c1ccccc1)c1ccccc1)OCc1ccccc1 | 120 to 127 °C
Cc1ccc(S(=O)(=O)OCC2OC(C)(C)OC2COS(=O)(=O)c2ccc(C)cc2)cc1 (configuration not stated) | 92 °C
COC1=CC(=O)OC1 | 60 to 65 °C

SMILES | melting point
C[C@H](C[C@H](I)C(C)(C)C)S(=O)(=O)c1ccccc1 | 74 °C
COc1ccc(-c2nnc3n2NC(c2ccco2)S3)cc1 (configuration not stated) | 161 °C
S=C=Nc1ccc(N2CCOCC2)nc1 | 121 to 122 °C
N#Cc1[nH]cnc2ncnc1-2 | 188 °C
CC(=CC=Cc1ccccc1)C(=O)OC(=O)C(C)=CC=Cc1ccccc1 | 112 to 113 °C
CCCOc1ccc([N+](=O)[O-])cc1NC(C)=O | 102 °C
O=C1CCc2cc(Br)ccc2C1 | 70 to 76 °C
O=C=Nc1cccs1 | 108 to 110 °C
OCC(O)CN1CCN(c2ccccc2)CC1 (configuration not stated) | 105 °C
Cc1cc(C)n2nc(N)c(/N=N/c3ccncc3)c2n1 | 228 °C
O=C1NC(=O)C(=NNc2cccc([N+](=O)[O-])c2)C(=O)N1 | 270 °C
COc1cc2c(cc1O)[C@H](C)N(C)CC2 | 182 °C
CCOC(=O)C=C1SC(N2CCCCC2)C(=O)N1C (configuration not stated) | 140 °C
CC(=O)Nc1ccccc1CCNCCc1ccccc1NC(C)=O | 110 °C
O=[N+]([O-])c1cccnc1Oc1ccccc1F | 90 to 92 °C
CN(C)c1ccc(C2Nn3c(nnc3-c3ccc([N+](=O)[O-])cc3)S2)cc1 (configuration not stated) | 176 °C
O=C1CCCCC1Cl (configuration not stated) | 23 °C
COc1cc2c(cc1O)C(C)=NCC2 | 182 to 185 °C
Nc1ncnc2c1ncn2Cc1c(F)cccc1Cl | 245 °C
O=C(O)C1CSC(c2cccnc2)=N1 (configuration not stated) | 180 to 181 °C
CCc1ccc(C(N)=O)cc1 | 163 °C
CC(=O)c1c(C)c(C)cc(C)c1C | 75 °C

SMILES | melting point
O=C(CBr)c1cccs1 | 109 to 111 °C
c1ccc2c(c1)OCCOCCOCCOc1ccccc1OCCOCCOCCO2 | 102 to 106 °C
COc1ccc(C2(C(=O)O)CCCCC2)cc1 | 172 to 177 °C
O=Cc1ccc(Oc2cccnc2)o1 | 72 to 73 °C
O=C1C=C(NCCCCc2ccccc2)C(=O)c2ccccc21 | 137 °C
NNC(=O)c1ccc(N)cc1O | 195 °C
CN(C)C(=S)Cl | 42.5 °C
CCSC#N | -85.5 °C
CCCOC(=O)C1=C(C)NC(=S)NC1c1ccco1 (configuration not stated) | 177 °C
O=[N+]([O-])c1ccc(N2CCCCC2)cc1 | 104 to 106 °C
CCOC(=O)c1c[nH]c2c(F)c(F)c(F)cc2c1=O | 267 to 272 °C
Cc1ccc(C(C)CC(=O)C=Cc2ccccc2)cc1 (configuration not stated) | 88 °C
O=C1C(=Cc2ccccc2)SC(=S)N1CN1CCCCC1 | 114 °C
CCC(CO)NC(=O)C1C=C2c3cccc4c3c(cn4C)CC2N(C)C1 (configuration not stated) | 195 °C
O=C(O)C=Cc1ccc(F)cc1C(F)(F)F | 182 °C
CC(=O)C1=CCCCC1 | 73 °C
COC(=O)C1=C(N)Oc2cc(C)[nH]c(=O)c2C1c1ccccc1 (configuration not stated) | 230 to 232 °C
OCC12CC3CC(CC(C3)C1)C2 | 140 °C
Cc1cccc(NC(=O)c2ccccc2C(=O)O)c1 | 150 °C
COc1ccccc1N/N=C(\C(N)=O)c1nc2ccccc2s1 | 212 °C
Cc1cc(C)oc(=O)c1 | 51.5 °C
OC(Cn1ccnc1)c1ccc(Cl)cc1Cl (configuration not stated) | 134 to 138 °C

SMILES | melting point
Cc1ccc(C=C2N=C(c3ccccc3)OC2=O)o1 | 159 to 160 °C
NC(=O)COc1cccc(Cl)c1 | 123 to 126 °C
O=C(Cl)c1cc2ccccc2n1S(=O)(=O)c1ccccc1 | 127 to 128 °C
O=C(CBr)c1cccc2c1OCCO2 | 71 to 72 °C
O=C1CC2CCCCC2C1 (configuration not stated) | 10 °C
COS(=O)(=O)Cl | -70 °C
O=C(O)CCc1cc2c(cc1[N+](=O)[O-])CCC(=O)N2 | 258 °C
COC(=O)NN=Cc1c[n+]([O-])c2ccccc2[n+]1[O-] | 239 °C
CC(C)Oc1ccc2c(=O)c(-c3ccccc3)coc2c1 | 115 °C
CCOC(=O)C1=Nc2cc3c(cc2=C1OC(C)=O)C(OC(C)=O)=C(C(=O)OCC)N=3 | 178 °C
O=Cc1cccc2c1OCCO2 | 62 to 63 °C
C=C(C)CC(C)=O | -72.6 °C
CN1CCC(N2CCNCC2)CC1 | 31 °C
ClCc1c(Cl)c(Cl)c(CCl)c(Cl)c1Cl | 174 °C
O=C(N=C=S)c1ccc(Cl)cc1 | 45 to 46 °C
CC(C)CC1=CC(=Cc2ccc(-c3ccc(Br)cc3)o2)C(=O)O1 | 107 to 108 °C
COc1nc(N)nc(SC)n1 | 200 to 202 °C
CSc1scnc1S(=O)(=O)c1ccc(C)cc1 | 169 to 171 °C
COc1cc2ccc(N(C)S(=O)(=O)c3ccc(C)cc3)cc2[nH]1 | 203 °C
CC1CCC(=O)C1=O (configuration not stated) | 105 to 110 °C
COc1ccc(C(F)(F)F)cc1CBr | 36 °C
O=C(c1ccccc1)c1ccc(C(F)(F)F)c(F)c1 | 66 °C

SMILES | melting point
CC(=CNNc1nc(C)cc(C)n1)c1ccccn1 | 142 to 145 °C
O=C(O)c1sc2sccc2c1Cl | 252 to 258 °C
Cc1cc2oc(-c3ccccc3)cc(=O)c2cc1Cl | 174 to 178 °C
O=C=Nc1cccc2nsnc12 | 81 to 82 °C
O=C(C=Cc1ccc(-c2ccc([N+](=O)[O-])cc2)o1)c1ccccc1 | 157 to 158 °C
O=C(O)c1cccc2cccc(C(=O)O)c12 | 260 °C
O=C(/C=C/OC(=O)c1ccccc1)CCc1ccccc1 | 99 to 100 °C
BrC(Br)C(Br)Br | 0 °C
C[C@@]12CC[C@@H]3[C@H](CC[C@]4(C)C(=O)CC[C@]34C)[C@@]1(C)CCC(=O)C2 | 184 to 186 °C
FC(F)(F)c1ccc(I)cc1 | -8 °C
N#Cc1cc(F)cc(Cl)c1 | 57 °C
FC(F)(F)C(F)(C(F)(F)F)C(F)(C(F)(F)F)C(F)(F)F | -16.7 °C
BrCCCCCCCCCCCCCCBr | 50.4 °C
C=C=N | -78 °C
COc1ccc(C=CC(=O)c2ccc(F)cc2)c(OC)c1 | 117 to 122 °C
O=Cc1ccc(-c2ccc(C=O)cc2)cc1 | 148 °C
CC(C)CCC#N | -51 °C
COc1ccc(F)c(C#N)c1 | 83 °C
Cc1cccnc1C(N)=NO | 94 to 95 °C
CCCCOc1ccc(-c2nnc3sc(/C=C/c4ccccc4)nn23)cc1 | 79 to 81 °C
CCOC(=O)C1=C(C)NC(C)=C(C(=O)OCC)C1c1cccc(OC)c1O | 207 °C
CCCCOc1c(-c2nnc(-c3ccc(Cl)cc3)o2)sc(-c2nnc(-c3ccc(Cl)cc3)o2)c1OCCCC | 178 °C

SMILES | melting point
NC(CC1CCCCC1)C(=O)O (configuration not stated) | 322 to 328 °C
O=C(O)c1ccc(C(F)(F)F)cc1C(F)(F)F | 109 to 113 °C
CNc1ccccc1 | -57 °C
Cc1cc(C)c(Cc2cnc(NC3=NCCN3)s2)c(C)c1 | 192 to 194 °C
O=C(c1ccc(C(F)(F)F)cc1)c1cccc(C(F)(F)F)c1 | 94 to 98 °C
OCC(O)CI (configuration not stated) | 48.5 °C
O=C(N=NC(=O)OCc1ccccc1)OCc1ccccc1 | 44 to 52 °C
Nc1ccc2c(c1)OCCCO2 | 81 to 82 °C
O=C1CCCN1c1ccc(Cl)cc1 | 95 to 98 °C
Nc1ccccc1-c1ccccc1N | 81 °C
CON(/C=C1\C(=O)C2(C)CCC1C2(C)C)c1ccccc1 (configuration not stated) | 75 to 76 °C
CCCOc1ccc(C#N)cc1 | 41 °C
COc1ccc(C(=O)CCC(=O)O)cc1 | 149 °C
Nc1ccc(I)cc1 | 67.5 °C
COP(=S)(OC)SCN1C(=O)c2ccccc2C1=O | 72 °C
CCN(CC)c1c([N+](=O)[O-])cc(C(F)(F)F)c(N)c1[N+](=O)[O-] | 98.5 °C
O=C(O)C(C(F)(F)F)C(F)(F)F | 52 °C
Clc1nc[nH]c1Cl | 185 to 186 °C
NS(=O)(=O)c1cc(S(=O)(=O)c2cccc(O)c2)cs1 | 145 °C
Cn1nc(-c2cccs2)cc1CO | 95 to 96 °C
NNC(=O)c1cncc(Br)c1 | 199 to 202 °C
COC(=O)c1cc(C=O)oc1C | 83 °C
